PubChem BioAssay (NCI)
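GI50 marks 50% less growth. TGI: total growth inhibition.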

Key:
Experiment in all cases: NCI tumour cell line growth inhibition, 384-well format
MALME-3M melanoma = tested on: MALME-3M melanoma
HOP-92 NSCLC = tested on: HOP-92 NSCLC
MDA-MB-468 breast = tested on: MDA-MB-468 breast
RXF 393 renal = tested on: RXF 393 renal
UO-31 renal = tested on: UO-31 renal
HS 578T breast = tested on: HS 578T breast
NCI-H23 lung = tested on: NCI-H23 lung
SNB-19 CNS = tested on: SNB-19 CNS
MDA-MB-435 melanoma = tested on: MDA-MB-435 melanoma
PC-3 prostate = tested on: PC-3 prostate
HCT-15 colon = tested on: HCT-15 colon
K-562 leukemia = tested on: K-562 leukemia
T-47D breast = tested on: T-47D breast
SK-MEL-2 melanoma = tested on: SK-MEL-2 melanoma
OVCAR-4 ovarian = tested on: OVCAR-4 ovarian
RPMI-8226 leukemia = tested on: RPMI-8226 leukemia
SK-MEL-5 melanoma = tested on: SK-MEL-5 melanoma
SF-539 CNS = tested on: SF-539 CNS
NCI-H322M lung = tested on: NCI-H322M lung
786-0 renal = tested on: 786-0 renal
NCI-H460 NSCLC = tested on: NCI-H460 NSCLC
BT-549 breast = tested on: BT-549 breast
UACC-62 melanoma = tested on: UACC-62 melanoma
A498 renal = tested on: A498 renal
MDA-MB-231 breast = tested on: MDA-MB-231 breast
OVCAR-5 ovarian = tested on: OVCAR-5 ovarian
M14 melanoma = tested on: M14 melanoma
NCI/ADR-RES ovarian = tested on: NCI/ADR-RES ovarian
UACC-257 melanoma = tested on: UACC-257 melanoma
SF-268 CNS = tested on: SF-268 CNS
SNB-75 CNS = tested on: SNB-75 CNS
HCT-116 colon = tested on: HCT-116 colon
OVCAR-8 ovarian = tested on: OVCAR-8 ovarian
SK-MEL-28 melanoma = tested on: SK-MEL-28 melanoma
HT29 colon = tested on: HT29 colon
CCRF-CEM leukemia = tested on: CCRF-CEM leukemia
NCI-H226 lung = tested on: NCI-H226 lung
NCI-H522 lung = tested on: NCI-H522 lung
SN12C renal = tested on: SN12C renal
LOX IMVI melanoma = tested on: LOX IMVI melanoma
TK-10 renal = tested on: TK-10 renal
HL-60(TB) leukemia = tested on: HL-60(TB) leukemia
SW-620 colon = tested on: SW-620 colon
CAKI-1 renal = tested on: CAKI-1 renal
HCC-2998 colon = tested on: HCC-2998 colon
COLO 205 colon = tested on: COLO 205 colon
SR leukemia = tested on: SR leukemia

With `CC(C)N(CCCNC(=O)Nc1ccc(C(C)(C)C)cc1)C[C@H]1O[C@@H](n2ccc3c(N)ncnc32)[C@H](O)[C@@H]1O` the GI50 (MALME-3M melanoma) was 61.6 µM, the TGI (MALME-3M melanoma) was greater than 100 µM and the GI50 (HOP-92 NSCLC) was greater than 100 µM. The TGI (HOP-92 NSCLC) was greater than 100 µM, the GI50 (MDA-MB-468 breast) was 23.1 µM and the TGI (MDA-MB-468 breast) was greater than 100 µM. It also gave a GI50 (RXF 393 renal) greater than 100 µM, a TGI (RXF 393 renal) greater than 100 µM and a GI50 (UO-31 renal) greater than 100 µM. For the same compound, the TGI (UO-31 renal) was greater than 100 µM, the GI50 (HS 578T breast) was greater than 100 µM and the TGI (HS 578T breast) was greater than 100 µM. For the same compound, the GI50 (NCI-H23 lung) was greater than 100 µM, the TGI (NCI-H23 lung) was greater than 100 µM and the GI50 (SNB-19 CNS) was greater than 100 µM. For the same compound, the TGI (SNB-19 CNS) was greater than 100 µM, the GI50 (MDA-MB-435 melanoma) was greater than 100 µM and the TGI (MDA-MB-435 melanoma) was greater than 100 µM. It also gave a GI50 (PC-3 prostate) greater than 100 µM, a TGI (PC-3 prostate) greater than 100 µM and a GI50 (HCT-15 colon) greater than 100 µM. The TGI (HCT-15 colon) was greater than 100 µM, the GI50 (K-562 leukemia) was greater than 100 µM and the TGI (K-562 leukemia) was greater than 100 µM. It also gave a GI50 (T-47D breast) greater than 96.4 µM, a TGI (T-47D breast) greater than 100 µM and a GI50 (SK-MEL-2 melanoma) greater than 100 µM. For the same compound, the TGI (SK-MEL-2 melanoma) was greater than 100 µM, the GI50 (OVCAR-4 ovarian) was greater than 100 µM and the TGI (OVCAR-4 ovarian) was greater than 100 µM. The GI50 (RPMI-8226 leukemia) was 18.9 µM, the TGI (RPMI-8226 leukemia) was greater than 100 µM and the GI50 (SK-MEL-5 melanoma) was greater than 100 µM. For the same compound, the TGI (SK-MEL-5 melanoma) was greater than 100 µM, the GI50 (SF-539 CNS) was greater than 100 µM and the TGI (SF-539 CNS) was greater than 100 µM. For the same compound, the GI50 (NCI-H322M lung) was greater than 100 µM, the TGI (NCI-H322M lung) was greater than 100 µM and the GI50 ([…]-0 renal) was greater than 100 µM. The TGI (786-0 renal) was greater than 100 µM, the GI50 (NCI-H460 NSCLC) was greater than 100 µM and the TGI (NCI-H460 NSCLC) was greater than 100 µM. The GI50 (BT-549 breast) was greater than 100 µM, the TGI (BT-549 breast) was greater than 100 µM and the GI50 (UACC-62 melanoma) was greater than 100 µM. For the same compound, the TGI (UACC-62 melanoma) was greater than 100 µM, the GI50 (A498 renal) was greater than 100 µM and the TGI (A498 renal) was greater than 100 µM. For the same compound, the GI50 (MDA-MB-231 breast) was greater than 100 µM, the TGI (MDA-MB-231 breast) was greater than 100 µM and the GI50 (OVCAR-5 ovarian) was greater than 100 µM. For the same compound, the TGI (OVCAR-5 ovarian) was greater than 100 µM, the GI50 (M14 melanoma) was greater than 100 µM and the TGI (M14 melanoma) was greater than 100 µM. It also gave a GI50 (NCI/ADR-RES ovarian) greater than 100 µM, a TGI (NCI/ADR-RES ovarian) greater than 100 µM and a GI50 (UACC-257 melanoma) of 41.5 µM. For the same compound, the TGI (UACC-257 melanoma) was greater than 95.1 µM, the GI50 (SF-268 CNS) was greater than 63.7 µM and the TGI (SF-268 CNS) was greater than 100 µM. For the same compound, the GI50 (SNB-75 CNS) was greater than 100 µM, the TGI (SNB-75 CNS) was greater than 100 µM and the GI50 (HCT-116 colon) was greater than 100 µM. The TGI (HCT-116 colon) was greater than 100 µM, the GI50 (OVCAR-8 ovarian) was greater than 100 µM and the TGI (OVCAR-8 ovarian) was greater than 100 µM. For the same compound, the GI50 (SK-MEL-28 melanoma) was greater than 100 µM, the TGI (SK-MEL-28 melanoma) was greater than 100 µM and the GI50 (HT29 colon) was greater than 87.2 µM. For the same compound, the TGI (HT29 colon) was greater than 100 µM, the GI50 (CCRF-CEM leukemia) was greater than 95.3 µM and the TGI (CCRF-CEM leukemia) was greater than 100 µM. The GI50 (NCI-H226 lung) was greater than 100 µM, the TGI (NCI-H226 lung) was greater than 100 µM and the GI50 (NCI-H522 lung) was greater than 100 µM. For the same compound, the TGI (NCI-H522 lung) was greater than 100 µM, the GI50 (SN12C renal) was greater than 100 µM and the TGI (SN12C renal) was greater than 100 µM. For the same compound, the GI50 (LOX IMVI melanoma) was greater than 89 µM, the TGI (LOX IMVI melanoma) was greater than 100 µM and the GI50 (TK-10 renal) was greater than 100 µM. It also gave a TGI (TK-10 renal) greater than 100 µM, a GI50 (HL-60(TB) leukemia) greater than 92.8 µM and a TGI (HL-60(TB) leukemia) greater than 100 µM. The GI50 (SW-620 colon) was greater than 100 µM, the TGI (SW-620 colon) was greater than 100 µM and the GI50 (CAKI-1 renal) was greater than 100 µM. It also gave a TGI (CAKI-1 renal) greater than 100 µM, a GI50 (HCC-2998 colon) greater than 100 µM and a TGI (HCC-2998 colon) greater than 100 µM. For the same compound, the GI50 (COLO 205 colon) was greater than 100 µM, the TGI (COLO 205 colon) was greater than 100 µM and the GI50 (SR leukemia) was greater than 100 µM. It also gave a TGI (SR leukemia) greater than 100 µM.
